Assay results as given in US7105541B2, “Naphthyl compounds, intermediates, compositions, and methods of use” (Eli Lilly and Company, priority 1996, dated 2006).
Counter-ions that a name gives are not always drawn. Marks after values point to notes of the source that are not given here.

System: ovariectomized rats
Experiment: ovariectomized rat model of postmenopausal hyperlipidemia (serum cholesterol, uterine weight, uterine eosinophil peroxidase)
Type: in vivo
Text: Experimental models of postmenopausal hyperlipidemia are known in the art. Germane to this invention is the ovariectomized rat model which is detailed in U.S. Pat. No. 5,464,845. Data presented in Table 1 show comparative results among ovariectomized rats, rats treated with 17-α-ethynyl estradiol (EE2), and rats treated with certain compounds of this invention. […] This uterine response to estrogen is well recognized in the art.
Not only did the compounds of the present invention reduce serum cholesterol compared to the ovariectomized animals, but the uterine weight was increased to lesser extent than those given EE2. Compared to estrogenic compounds known in the art, the benefit of serum cholesterol reduction while lessening the effect on uterine weight is unusual and desirable.
As expressed in the data below, estrogenicity also was assessed by evaluating the response of eosinophil infiltration into the uterus.
The data presented in Table 1 reflect the response per treatment group.

[1] = ovariectomized rats, 0.1 mg/kg PO
[2] = orally administered at 0.1 mg/kg/day, ovariectomized rats
[3] = ovariectomized rats, 1.0 mg/kg PO
[4] = ovariectomized rats, 10.0 mg/kg PO
[5] = ovariectomized rats, 0.01 mg/kg PO

Uterine Eosinophil (Vmax), eosinophil peroxidase [1]	Uterine Weight % Inc (increase versus the ovariectomized controls) [1]	Uterine Eosinophil (Vmax), eosinophil peroxidase [3]	Uterine Weight % Inc (increase versus the ovariectomized controls) [3]	Uterine Eosinophil (Vmax), eosinophil peroxidase [4]	Uterine Weight % Inc (increase versus the ovariectomized controls) [4]	Uterine Eosinophil (Vmax), eosinophil peroxidase [5]	Uterine Weight % Inc (increase versus the ovariectomized controls) [5] [%]	SMILES	Serum Cholest. % Dec. (decrease versus ovariectomized controls) [1]	serum cholesterol (in words) [2]	uterine weight versus ovariectomized animals (in words) [2]	eosinophil infiltration into the uterus (in words) (stromal layer of ovariectomized rat uteri)	Serum Cholest. % Dec. (decrease versus ovariectomized controls) [3]	Serum Cholest. % Dec. (decrease versus ovariectomized controls) [4]	Serum Cholest. % Dec. (decrease versus ovariectomized controls) [5] [%]
5.4	23.5%							O=C(c1ccc(OCCN2CCCCC2)cc1)c1c(-c2ccc(O)cc2)sc2cc(O)ccc12 [Raloxifene, [2-(4-hydroxyphenyl)-6-hydroxybenzo[b]thien-3-yl] [4-[2-(1-piperdinyl)ethoxy]phenyl]methanone hydrochloride, reference compound]	49.3* %						
4.8	10.4%	3.0	15.3%	1.2	3.9%			Cl.Oc1cccc(-c2ccc3cc(O)ccc3c2Oc2ccc(OCCN3CCCCC3)cc2)c1 [Example 3, 1-[4-[2-(1-piperidinyl)ethoxy]phenoxy]-2-(3-hydroxyphenyl)-6-hydroxynaphthalene hydrochloride]	26.3* %				45.7* %	22.9%	

The next lines start with the molecule.

SMILES	Uterine Eosinophil (Vmax), eosinophil peroxidase [1]	Uterine Weight % Inc (increase versus the ovariectomized controls) [1]	Uterine Eosinophil (Vmax), eosinophil peroxidase [3]	Uterine Weight % Inc (increase versus the ovariectomized controls) [3]	Uterine Eosinophil (Vmax), eosinophil peroxidase [4]	Uterine Weight % Inc (increase versus the ovariectomized controls) [4]	Uterine Eosinophil (Vmax), eosinophil peroxidase [5]	Uterine Weight % Inc (increase versus the ovariectomized controls) [5] [%]	Serum Cholest. % Dec. (decrease versus ovariectomized controls) [1]	serum cholesterol (in words) [2]	uterine weight versus ovariectomized animals (in words) [2]	eosinophil infiltration into the uterus (in words) (stromal layer of ovariectomized rat uteri)	Serum Cholest. % Dec. (decrease versus ovariectomized controls) [3]	Serum Cholest. % Dec. (decrease versus ovariectomized controls) [4]	Serum Cholest. % Dec. (decrease versus ovariectomized controls) [5] [%]
C#C[C@]1(O)CC[C@H]2[C@@H]3CCc4cc(O)ccc4[C@H]3CC[C@@]21C [EE2, 17-α-Ethynyl-estradiol, reference compound]	174.3*	138.8* %							88.1* %	caused a decrease in serum cholesterol	substantially greater than the uterine weight of the ovariectomized animals	substantial and expected increase in eosinophil infiltration			
COc1cccc(-c2ccc3ccccc3c2Oc2ccc(OCCN3CCCCC3)cc2)c1.Cl [Example 2, 1-[4-[2-(1-piperidinyl)ethoxy]phenoxy]-2-(3-methoxyphenyl)naphthalene hydrochloride]	4.5	42.7* %	7.8	43.8* %	4.5	37.2* %			59.6* %				66.2* %	59.0* %	
COc1cccc(-c2ccc3cc(OC)ccc3c2Oc2ccc(OCCN3CCCCC3)cc2)c1.Cl [Example 1, 1-[4-[2-(1-piperidinyl)ethoxy]phenoxy]-2-(3-methoxyphenyl)-6-methoxynaphthalene hydrochloride]	4.8	21.9%	4.8	35.8* %			2.1	9.6	55.6* %				60.5* %		12.1
